This note sets out measurements from patent publication EP0838465A1, “Pyridinium-substituted (lactamylvinyl)cephalosporin derivatives, their preparation and their use as antibiotics” (F. HOFFMANN-LA ROCHE AG, priority 1996, dated 1998).

In one assay the test system is MRSA (n=17). The assay can be described thus: In vitro activity, MIC90 by agar dilution method in Mueller Hinton agar. It is filed as cell-based, S. aureus. The note with it: Staphylococcus aureus, agar dilution method on Mueller-Hinton agar, inoculum 10^5 CFU/spot. The procedure: (§1) In vitro activity was determined by minimum inhibitory concentration in a microorganism spectum by the agar dilution method in Mueller Hinton agar.
(§2) The antibacterial Spectrum appears below: • MIC : Minimum Inhibiting Concentration Values
On the technique in general: Agar dilution tests growth on a series of plates holding different concentrations.

In another assay the test system is S.aureus 42080 (MRSA). The assay is described as follows: In vitro activity, minimum inhibitory concentration by agar dilution method in Mueller Hinton agar. In kind it is cell-based. The following applies: Staphylococcus aureus, agar dilution method on Mueller-Hinton agar, inoculum 10^4 CFU/spot. As to the method:
as §1, §2

The next assay has as its system S.aureus 6538 (MSSA). Described as above. In kind it is cell-based. The note with it: Staphylococcus aureus, agar dilution method on Mueller-Hinton agar, inoculum 10^4 CFU/spot. As to the method:
as §1, §2

≈ marks a conversion by molar mass, not a printed value.

What is called MIC90 is the lowest concentration that inhibits either 90% of growth or 90% of the strains tested, depending on the study. A higher MIC90 goes with weaker potency. A word on the MIC: it is the smallest concentration in the dilution series that meets the test's criterion for growth inhibition.

As for `Nc1nc(/C(=N/O)C(=O)N[C@@H]2C(=O)N3C(C(=O)[O-])=C(/C=C4\CCN(Cc5cc[n+](CC(=O)Nc6ccc(O)c(F)c6)cc5)C4=O)CS[C@H]23)cs1` [C, (6R,7R)-7-[(Z)-2-(2-Amino-thiazol-4-yl)-2-hydroxyimino-acetylamino]-3-[(E)-1-[1-[(3-fluoro-4-hydroxy-phenylcarbamoyl)-methyl]-pyridin-1-ium-4-ylmethyl]-2-oxo-pyrrolidin-3-ylidenemethyl]-8-oxo-5-thia-1-aza-bicyclo[4.2.0]oct-2-ene-2-carboxylate], in the assay with MRSA (n=17), the MIC90 turned out to be 4 mg/L (≈ 5.53 µM). Further, the results for the MIC with S.aureus 42080 (MRSA) and against S.aureus 6538 (MSSA) were 4 mg/L (≈ 5.53 µM) and 1 mg/L (≈ 1.38 µM), respectively.

In turn, `COc1cc(NC(=O)C[n+]2ccc(CN3CC/C(=C\C4=C(C(=O)[O-])N5C(=O)[C@@H](NC(=O)/C(=N\O)c6csc(N)n6)[C@H]5SC4)C3=O)cc2)ccc1O` [F, (6R,7R)-7-[(Z)-2-(2-Amino-thiazol-4-yl)-2-hydroxyimino-acetylamino]-3-[(E)-1-[1-[(4-hydroxy-3-methoxy-phenylcarbamoyl)-methyl]-pyridin-1-ium-4-ylmethyl]-2-oxo-pyrrolidin-3-ylidenemethyl]-8-oxo-5-thia-1-aza-bicyclo[4.2.0]oct-2-ene-2-carboxylate] yielded an MIC90 in the assay on MRSA (n=17) of 8 mg/L (≈ 10.9 µM). Besides, the MIC in the assay on S.aureus 42080 (MRSA) is 8 mg/L (≈ 10.9 µM); against S.aureus 6538 (MSSA), 1 mg/L (≈ 1.36 µM).

`Nc1nc(/C(=N/O)C(=O)N[C@@H]2C(=O)N3C(C(=O)[O-])=C(/C=C4\CCN(Cc5cc[n+](CC(=O)Nc6ccc(O)c(F)c6)cc5)C4=O)CS[C@H]23)ns1` [D, (6R,7R)-7-[(Z)-2-(5-Amino-[1,2,4]thiadiazol-3-yl)-2-hydroxyimino-acetylamino]-3-[(E)-1-[1-[(3-fluoro-4-hydroxy-phenylcarbamoyl)-methyl]-pyridin-1-ium-4-ylmethyl]-2-oxo-pyrrolidin-3-ylidenemethyl]-8-oxo-5-thia-1-aza-bicyclo[4.2.0]oct-2-ene-2-carboxylate] had an MIC90 in the assay on MRSA (n=17) of 4 mg/L (≈ 5.53 µM). Further, the MIC against S.aureus 42080 (MRSA) amounted to 4 mg/L (≈ 5.53 µM); in the assay with S.aureus 6538 (MSSA), 1 mg/L (≈ 1.38 µM).

`Nc1nc(/C(=N/O)C(=O)N[C@@H]2C(=O)N3C(C(=O)[O-])=C(/C=C4\CCN(Cc5ccc[n+](CC(=O)Nc6ccc(O)c(F)c6)c5)C4=O)CS[C@H]23)cs1` [G, (6R,7R)-7-[(Z)-2-(2-Amino-thiazol-4-yl)-2-hydroxyimino-acetylamino]-3-[(E)-1-[1-[(3-fluoro-4-hydroxy-phenylcarbamoyl)-methyl]-pyridin-1-ium-3-ylmethyl]-2-oxo-pyrrolidin-3-ylidenemethyl]-8-oxo-5-thia-1-aza-bicyclo[4.2.0]oct-2-ene-2-carboxylate] displayed an MIC90 in the assay on MRSA (n=17) of 8 mg/L (≈ 11.1 µM). The values for the MIC in the assay with S.aureus 42080 (MRSA) and in the assay with S.aureus 6538 (MSSA) were 4 mg/L (≈ 5.53 µM) and 0.5 mg/L (≈ 0.692 µM), respectively.

`Nc1nc(/C(=N/O)C(=O)N[C@@H]2C(=O)N3C(C(=O)[O-])=C(/C=C4\CCN(Cc5cc[n+](CC(=O)Nc6ccc(O)cc6)cc5)C4=O)CS[C@H]23)cs1` [A, (6R,7R)-7-[(Z)-2-(2-Amino-thiazol-4-yl)-2-hydroxyimino-acetylamino]-3-[(E)-1-[1-[(4-hydroxy-phenylcarbamoyl)-methyl]-pyridin-1-ium-4-ylmethyl]-2-oxo-pyrrolidin-3-ylidenemethyl]-8-oxo-5-thia-1-aza-bicyclo[4.2.0]oct-2-ene-2-carboxylate] came in with an MIC90 against MRSA (n=17) of 8 mg/L (≈ 11.4 µM). Further, the results for the MIC with S.aureus 42080 (MRSA) and against S.aureus 6538 (MSSA) were 4 mg/L (≈ 5.68 µM) and 0.5 mg/L (≈ 0.709 µM), respectively.

Consider `Nc1nc(/C(=N/O)C(=O)N[C@@H]2C(=O)N3C(C(=O)[O-])=C(/C=C4\CCN(Cc5cc[n+](CC(=O)Nc6ccc(O)cc6)cc5)C4=O)CS[C@H]23)ns1` [B, (6R,7R)-7-[(Z)-2-(5-Amino-[1,2,4]thiadiazol-3-yl)-2-hydroxyimino-acetylamino]-3-[(E)-1-[1-[(4-hydroxy-phenylcarbamoyl)-methyl]-pyridin-1-ium-4-ylmethyl]-2-oxo-pyrrolidin-3-ylidenemethyl]-8-oxo-5-thia-1-aza-bicyclo[4.2.0]-oct-2-ene-2-carboxylate], for which, in the assay with MRSA (n=17), the MIC90 is 4 mg/L (≈ 5.67 µM). Besides, the MIC turned out to be 4 mg/L (≈ 5.67 µM) in the assay with S.aureus 42080 (MRSA) and 0.5 mg/L (≈ 0.708 µM) against S.aureus 6538 (MSSA).

With `Nc1nc(/C(=N/O)C(=O)N[C@@H]2C(=O)N3C(C(=O)[O-])=C(/C=C4\CCN(Cc5cc[n+](CC(=O)Nc6ccc(O)c(Cl)c6)cc5)C4=O)CS[C@H]23)cs1` [E, (6R,7R)-7-[(Z)-2-(2-Amino-thiazol-4-yl)-2-hydroxyimino-acetylamino]-3-[(E)-1-[1-[(3-chloro-4-hydroxy-phenylcarbamoyl)-methyl]-pyridin-1-ium-4-ylmethyl]-2-oxo-pyrrolidin-3-ylidenemethyl]-8-oxo-5-thia-1-aza-bicyclo[4.2.0]oct-2-ene-2-carboxylate], the MIC90 with MRSA (n=17) turned out to be 8 mg/L (≈ 10.8 µM). In addition, the MIC against S.aureus 42080 (MRSA) stood at 4 mg/L (≈ 5.41 µM); against S.aureus 6538 (MSSA), 0.5 mg/L (≈ 0.676 µM).
